Here are results for three compounds from patent US6987112B2, “Organic compound having cyano group and insecticides/miticides” (Nippon Soda Co., Ltd., priority 2000, dated 2006).

Molecules are shown by their SMILES. Where two headings read alike, the source gives them in different places.

In series [1] the test system is Cotton Aphids. Put plainly: Efficacy on cotton aphids (spray on 1st instar nymphs on cucumber leaves). It is filed as in vivo. The settings on record: 125 ppm spray, 25° C., 65% RH, five days later, duplicate.
For series [2], the system named is susceptible Citrus red mite. Put plainly: Effects on Citrus red mite (spray on adult females on Citrus leaf in Petri dish). It is filed as in vivo. The settings on record: Panonychus citri, read-out: percentage mortality. As to the method:
Eight adult females of susceptible Citrus red mite were inoculated on the surface of Citrus leaf placed in a glass Petridish. […] The solution was sprayed on the mites using a rotary spraying tower up to the fixed volume. […] The test was carried out in duplicate.

For the compound `Cn1nc(C(F)(F)F)c(C(OC(=O)C(C)(C)C)=C(C#N)Oc2ccc(Cl)cc2)c1Cl` [Compound No. 3-9, β-(5-chloro-1-methyl-3-trifluoromethylpyrazole-4-yl)-α-(4-chlorophenoxy)-β-pivaloyloxyacrylonitrile], the mortality at 125 ppm in series [1] (120 h, read-out: percentage mortality) is 100%; in series [2] (125 ppm spray (wettable powder), adult females on Citrus leaf, 25° C., 65% RH, third day after spraying, duplicate), 100%.

Take `Cc1cc(Cl)ccc1N=CN(C)C` [chlordimeform]: the mortality at 125 ppm in series [2] stood at 13%.

In the case of `Cc1nc(N(C)C)nc(OC(=O)N(C)C)c1C` [pyrimicarb], in series [1], the percentage mortality is 9%.

As a reminder, the mortality is the share of the test organisms that died.
